Test system: eNK cells
Experiment: Live cell confocal microscopy (UGATm) of antibody-dependent cellular cytotoxicity
Format: cell-based, human
Conditions: eNK aggregated with uncoated and RTX-coated Raji cells, no LFA-1 blockade
Method: FIGS. 9A-9D. LFA-1 blockade increases bystander killing. Live cell confocal microscopy of antibody-dependent cellular cytotoxicity by eNK cells pre-treated with murine IgG1 mAb control (9A) or LFA-1 blocking mAb (clone TS1/22, 9B). Green, RTX-coated Raji cells (NK-inciting targets); yellow, uncoated Raji cells (bystanders); red, LysoTracker Red (lytic granules); blue, SYTOX Blue viability dye. NK cells were mixed with the target cells immediately before the imaging process and imaged every 4 min for 4 hours. […] Data represent combined results from three healthy donors. Standard 4-hour 51Cr cytotoxicity assay of NK cells treated with LFA-1-blocking mAb or murine IgG control (9D). Each dot represents an individual healthy donor.
To apply this concept in the context of physiologic antibody-dependent cell mediated cytotoxicity (ADCC) a human therapeutic monoclonal antibody, Rituximab (RTX) was used along with NK cell resistant Raji cells that naturally express the antigen recognized by RTX. […]
YTS-CD16 and eNK cells were incubated with 5 μM LysoTracker Red DND-99 (Thermo Fisher) for 30 min at 37° C. and washed. […] Emission was detected with HyD detectors, and images were collected in a single z-plane at one frame every 4 or 30 min for 120 min. […]

## Rituximab: human therapeutic monoclonal antibody against CD20, used to coat Raji cells for ADCC
  killing of RTX-coated versus uncoated Raji cells: preferential killing of the RTX-coated Raji cells
